# Source: patent US11186566B2, “Modulator of cystic fibrosis transmembrane conductance regulator, pharmaceutical compositions, methods of treatment, and process for making the modulator” (Vertex Pharmaceuticals Incorporated, priority 2016, dated 2021)
# Like-named read-outs stand apart in the source and are kept apart here.
# Legend:
# human PXR = human PXR (Homo sapiens (Human), UniProt O75469); assay: PXR assay (PXR mediated CYP3A4 induction, DPX-2 cell line); format: cell-based; conditions: DPX-2 cells, 48 hours, 0.1 to 60 μM
# Experimental: 5D. Experimental Protocol for PXR Assay
# The propensity for PXR mediated CYP3A4 induction is assessed using the DPX-2 cell line in vitro. This cell line, which has been licensed from Puracyp Inc. was derived from HepG2 cells and has been stably transfected with genes encoding human PXR as well as a modified luciferase reporter linked to the CYP3A4 promoter region and related distal and proximal enhancers.
# The assay is run in 384 well format and each test article is administered in 11 doses ranging from 0.1 to 60 μM. On day 1, DPX-2 cells which have previously been expanded in-house and cryopreserved are thawed and seeded in tissue culture plates. The following day, media is changed and cells are cultured in media containing test article, vehicle control or the positive control compound, the clinically validated CYP3A4 inducer rifampicin. Cells are cultured in the presence of test article for 48 hours and then cell viability is assessed using fluorescence based assay (Cell Titer-Fluor, Promega) with an EnVision Plate Reader (PerkinElmer). Subsequently, CYP3A4 transactivation, which is proportional to luciferase activity, is measured by reading luminescense using the Promega One-Glo reagent system using the same plate reader.
# Data processing within the Genedata software package allows reporting of max fold induction compared to vehicle control, an EC50 value for CYP3A4 inducers and an 11 point-dose response curve.
# F508del-CFTR = F508del-CFTR (Homo sapiens (Human), UniProt P13569, DEL508-508); assay: Membrane potential optical (fluorescent voltage sensing dye, FLIPR III) HTS assay for F508del-CFTR modulators; format: cell-based
# Excerpt: Membrane Potential Optical Methods for Assaying Properties of F508del-CFTR Modulators
# The assay utilizes fluorescent voltage sensing dyes to measure changes in membrane potential using a fluorescent plate reader (e.g., FLIPR III, Molecular Devices, Inc.) as a readout for increase in functional F508del in NIH 3T3 cells.
# 5A-A1. Identification of F508Del-CFTR Modulators
# To identify modulators of F508del, a fluorescence based HTS assay format was developed. This HTS assay utilizes fluorescent voltage sensing dyes to measure changes in membrane potential on the FLIPR III as a measurement for increase in gating (conductance) of F508del NIH 3T3 cells.
# (in mM) NaCl 160, KCl 4.5, CaCl2 2, MgCl2 1, HEPES 10, pH 7.4 with NaOH, Glucose 10.
# Chloride salts in Bath Solution #1 (above) are substituted with gluconate salts.
# NIH3T3 mouse fibroblasts stably expressing F508del are used for optical measurements of membrane potential. The cells are maintained at 37° C. in 5% CO2 and 90% humidity in Dulbecco's modified Eagle's medium supplemented with 2 mM glutamine, 10% fetal bovine serum, 1×NEAA, β-ME, 1×pen/strep, and 25 mM HEPES in 175 cm^2 culture flasks. For all optical assays, the cells were seeded at 12,000 cells/well in 384-well matrigel-coated plates and cultured for 18-24 hrs at 37° C. for the potentiator assay. For the correction assays, the cells are cultured at 37° C. with and without compounds for 18-24 hours.
# Rat IV and PO PK studies = format: in vivo, male Sprague-Dawley rats; conditions: male, Sprague-Dawley, plasma; for bioavailability / AUC: 3 mg/kg, oral; for bioavailability: read-out: Rat po % F; for clearance: intravenous, 3.0 mg/kg, read-out: Rat iv CL
# Experimental: 5C. Experimental Protocol for Rat IV and PO PK Studies
# […] […] Analyses of plasma and dose preparations were performed using LC/MS/MS.
# Plasma concentration-time profiles of the tested compound in Sprague-Dawley rats at scheduled (nominal) sampling times were analyzed by noncompartmental pharmacokinetic methods using PK function within Watson LIMS software, Version 7.4.2 (Thermo Scientific Inc, Waltham, Mass.). AUC values were calculated using the linear trapezoidal rule.
# [1] = F508del NIH 3T3 cells, assay 5A-A1, read-out: CFTRdF508 EC50
# [2] = Table 7, Compound 1 and metabolites, read-out: CFTRdF508 EC50
# [3] = Table 9, read-out: CFTR dF508 EC50
# F508del-CFTR, sequence (P13569 other isoform, or with tags, fused parts or gaps del F508-F508): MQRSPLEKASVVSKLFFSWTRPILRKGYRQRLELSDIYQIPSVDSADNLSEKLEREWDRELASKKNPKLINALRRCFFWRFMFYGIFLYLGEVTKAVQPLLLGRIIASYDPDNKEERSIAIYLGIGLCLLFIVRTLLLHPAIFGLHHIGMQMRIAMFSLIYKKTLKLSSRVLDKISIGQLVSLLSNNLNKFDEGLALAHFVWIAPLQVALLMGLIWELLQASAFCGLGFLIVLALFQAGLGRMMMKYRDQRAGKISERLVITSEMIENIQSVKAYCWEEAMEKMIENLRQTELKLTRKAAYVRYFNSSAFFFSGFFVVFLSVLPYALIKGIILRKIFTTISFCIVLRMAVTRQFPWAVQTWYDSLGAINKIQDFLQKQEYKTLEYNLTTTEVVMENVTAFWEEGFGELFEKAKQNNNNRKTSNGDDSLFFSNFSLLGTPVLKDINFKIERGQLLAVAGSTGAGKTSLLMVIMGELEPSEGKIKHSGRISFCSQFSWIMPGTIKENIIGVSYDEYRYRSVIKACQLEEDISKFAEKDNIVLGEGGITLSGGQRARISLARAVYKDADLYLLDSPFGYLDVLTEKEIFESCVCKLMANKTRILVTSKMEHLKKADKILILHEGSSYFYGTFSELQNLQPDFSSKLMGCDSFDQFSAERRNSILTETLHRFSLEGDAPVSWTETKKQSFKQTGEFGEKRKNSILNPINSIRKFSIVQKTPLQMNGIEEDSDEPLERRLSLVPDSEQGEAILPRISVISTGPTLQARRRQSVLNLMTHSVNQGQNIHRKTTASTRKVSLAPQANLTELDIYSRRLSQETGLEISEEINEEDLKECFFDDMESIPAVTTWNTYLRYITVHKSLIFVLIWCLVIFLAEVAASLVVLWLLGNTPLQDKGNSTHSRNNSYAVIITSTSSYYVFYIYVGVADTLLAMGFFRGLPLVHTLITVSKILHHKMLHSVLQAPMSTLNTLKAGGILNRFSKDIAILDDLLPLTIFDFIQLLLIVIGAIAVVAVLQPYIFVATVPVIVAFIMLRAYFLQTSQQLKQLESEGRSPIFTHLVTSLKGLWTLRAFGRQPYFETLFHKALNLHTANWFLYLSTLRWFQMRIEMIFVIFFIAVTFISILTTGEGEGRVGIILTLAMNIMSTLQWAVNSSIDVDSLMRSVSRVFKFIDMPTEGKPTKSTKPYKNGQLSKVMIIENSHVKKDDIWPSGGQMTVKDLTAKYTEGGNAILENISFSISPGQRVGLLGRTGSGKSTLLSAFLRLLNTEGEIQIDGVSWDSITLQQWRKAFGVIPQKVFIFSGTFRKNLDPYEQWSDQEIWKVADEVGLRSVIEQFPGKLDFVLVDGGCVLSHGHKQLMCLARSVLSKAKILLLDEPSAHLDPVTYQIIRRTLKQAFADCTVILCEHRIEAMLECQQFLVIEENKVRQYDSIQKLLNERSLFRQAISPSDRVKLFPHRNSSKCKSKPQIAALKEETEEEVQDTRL
# human PXR, sequence (O75469 whole entry): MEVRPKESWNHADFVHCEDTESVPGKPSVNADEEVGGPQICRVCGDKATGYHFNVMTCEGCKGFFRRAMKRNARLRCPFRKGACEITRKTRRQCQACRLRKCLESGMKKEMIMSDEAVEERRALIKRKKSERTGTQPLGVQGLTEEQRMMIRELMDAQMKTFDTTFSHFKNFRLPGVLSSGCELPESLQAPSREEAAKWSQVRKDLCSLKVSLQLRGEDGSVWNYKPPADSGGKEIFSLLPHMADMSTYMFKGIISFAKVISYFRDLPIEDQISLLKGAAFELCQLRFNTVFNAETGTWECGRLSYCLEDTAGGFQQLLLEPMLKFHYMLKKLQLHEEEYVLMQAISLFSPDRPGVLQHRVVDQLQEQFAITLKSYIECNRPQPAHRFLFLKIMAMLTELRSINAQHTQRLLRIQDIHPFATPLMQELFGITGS
SMILES,PXR Max Induction (% of rifampicin) (human PXR),EC50 (F508del-CFTR; [1]),EC50 (F508del-CFTR; [2]),EC50 (F508del-CFTR; [3]),bioavailability (Rat IV and PO PK studies),clearance (Rat IV and PO PK studies),AUC (Rat IV and PO PK studies)
"C[C@@H]1CN(c2nc(-n3ccc(OCCC4(C(F)(F)F)CC4)n3)ccc2C(=O)NS(=O)(=O)c2ccc(O)cc2)C(C)(C)C1 [Compound 31, N-(4-Hydroxyphenyl)sulfonyl-6-[3-[2-[1-(trifluoromethyl)cyclopropyl]ethoxy]pyrazol-1-yl]-2-[(4S)-2,2,4-trimethylpyrrolidin-1-yl]pyridine-3-carboxamide]",7 % of rifampicin,< 100 nM,30 nM,30 nM,–,–,–
"C[C@@H]1CN(c2nc(-n3ccc(OCC4CCC4)n3)ccc2C(=O)NS(=O)(=O)c2cccnc2N)C(C)(C)C1 [Comp. E, reference compound]",10 % of rifampicin,–,–,–,–,–,–
"COc1cccc(S(=O)(=O)NC(=O)c2ccc(-n3ccc(OCC4(C(F)(F)F)CC4)n3)nc2N2C[C@@H](C)CC2(C)C)c1 [Comp. 49, N-(3-methoxyphenyl)sulfonyl-6-[3-[[1-(trifluoromethyl)cyclopropyl]methoxy]pyrazol-1-yl]-2-[(4S)-2,2,4-trimethylpyrrolidin-1-yl]pyridine-3-carboxamide]",19 % of rifampicin,< 100 nM,–,20 nM,–,–,–
"C[C@@H]1CN(c2nc(-n3ccc(O[C@H]4C[C@H]5CC[C@@H]4C5)n3)ccc2C(=O)NS(=O)(=O)c2ccccc2)C(C)(C)C1 [Comp. 39, N-(benzenesulfonyl)-6-[3-[(1R,2S,4S)-norbornan-2-yl]oxypyrazol-1-yl]-2-[(4S)-2,2,4-trimethylpyrrolidin-1-yl]pyridine-3-carboxamide]",13 % of rifampicin,< 100 nM,–,70 nM,–,–,–
"C[C@@H]1CN(c2nc(-n3ccc(COCC4(C(F)(F)F)CC4)n3)ccc2C(=O)NS(=O)(=O)c2ccccc2)C(C)(C)C1 [Comp. 37, N-(Benzenesulfonyl)-6-[3-[[1-(trifluoromethyl)cyclopropyl]methoxymethyl]pyrazol-1-yl]-2-[(4S)-2,2,4-trimethylpyrrolidin-1-yl]pyridine-3-carboxamide]",8 % of rifampicin,< 100 nM,–,70 nM,–,–,–
"C[C@@H]1CN(c2nc(-n3ccc(OCC4(C(F)(F)F)CCC4)n3)ccc2C(=O)NS(=O)(=O)c2ccccc2)C(C)(C)C1 [Compound 10, N-(Benzenesulfonyl)-6-[3-[[1-(trifluoromethyl)cyclobutyl]methoxy]pyrazol-1-yl]-2-[(4S)-2,2,4-trimethylpyrrolidin-1-yl]pyridine-3-carboxamide]",–,< 100 nM,–,40 nM,41%,11.2 mL/min/kg,2200 ng·h/mL
"C[C@@H]1CN(c2nc(-n3ccc(OCC(C4CC4)C4CC4)n3)ccc2C(=O)NS(=O)(=O)c2ccccc2)C(C)(C)C1 [Comp. 41, N-(Benzenesulfonyl)-6-[3-(2,2-dicyclopropylethoxy)pyrazol-1-yl]-2-[(4S)-2,2,4-trimethylpyrrolidin-1-yl]pyridine-3-carboxamide]",–,–,–,–,41%,1.9 mL/min/kg,6400 ng·h/mL
"Cc1ccccc1S(=O)(=O)NC(=O)c1ccc(-n2ccc(OCC3C(C)(C)C3(C)C)n2)nc1N1C[C@@H](C)CC1(C)C [Compound 15, N-(o-Tolylsulfonyl)-6-[3-[(2,2,3,3-tetramethylcyclopropyl)methoxy]pyrazol-1-yl]-2-[(4S)-2,2,4-trimethylpyrrolidin-1-yl]pyridine-3-carboxamide]",0 % of rifampicin,< 100 nM,–,20 nM,–,–,–
"C[C@@H]1CN(c2nc(-n3ccc(OCC4(C(F)(F)F)CC4)n3)ccc2C(=O)NS(=O)(=O)c2ccccc2F)C(C)(C)C1 [Comp. 50, N-(2-fluorophenyl)sulfonyl-6-[3-[[1-(trifluoromethyl)cyclopropyl]methoxy]pyrazol-1-yl]-2-[(4S)-2,2,4-trimethylpyrrolidin-1-yl]pyridine-3-carboxamide]",32 % of rifampicin,< 100 nM,–,30 nM,–,–,–
"Cc1ccccc1S(=O)(=O)NC(=O)c1ccc(-n2ccc(OCCC3(C(F)(F)F)CC3)n2)nc1N1C[C@@H](C)CC1(C)C [Compound 4, N-(o-Tolylsulfonyl)-6-[3-[2-[1-(trifluoromethyl)cyclopropyl]ethoxy]pyrazol-1-yl]-2-[(4S)-2,2,4-trimethylpyrrolidin-1-yl]pyridine-3-carboxamide]",4 % of rifampicin,< 100 nM,–,20 nM,–,–,–
"C[C@@H]1CN(c2nc(-n3ccc(OCCC(C4CC4)C4CC4)n3)ccc2C(=O)NS(=O)(=O)c2ccccc2)C(C)(C)C1 [Comp. 42, N-(Benzenesulfonyl)-6-[3-(3,3-dicyclopropylpropoxy)pyrazol-1-yl]-2-[(4S)-2,2,4-trimethylpyrrolidin-1-yl]pyridine-3-carboxamide]",–,< 100 nM,–,50 nM,51%,5.4 mL/min/kg,4400 ng·h/mL
"C[C@@H]1CN(c2nc(-n3ccc(OCCC4(C(F)(F)F)CC4)n3)ccc2C(=O)NS(=O)(=O)c2cccc(F)c2)C(C)(C)C1 [Compound 5, N-(3-Fluorophenyl)sulfonyl-6-[3-[2-[1-(trifluoromethyl)cyclopropyl]ethoxy]pyrazol-1-yl]-2-[(4S)-2,2,4-trimethylpyrrolidin-1-yl]pyridine-3-carboxamide]",–,< 100 nM,–,50 nM,50%,9.6 mL/min/kg,2700 ng·h/mL
"C[C@@H]1CN(c2nc(-n3ccc(OCC(C)(C)C)n3)ccc2C(=O)NS(=O)(=O)c2ccc[nH]c2=O)C(C)(C)C1 [Comp. C, reference compound]",3 % of rifampicin,–,–,–,–,–,–
"C[C@@H]1CN(c2nc(-n3ccc(OCC4(C(F)(F)F)CC4)n3)ccc2C(=O)NS(=N)(=O)c2ccccc2)C(C)(C)C1 (stereo partly drawn) [Compound 45, N-(amino(oxo)(phenyl)-λ^6-sulfaneylidene)-6-(3-((1-(trifluoromethyl)cyclopropyl)methoxy)-1H-pyrazol-1-yl)-2-((S)-2,2,4-trimethylpyrrolidin-1-yl)nicotinamide]",–,100 to 1000 nM,–,–,–,–,–
"[2H]C([2H])(Oc1ccn(-c2ccc(C(=O)NS(=O)(=O)c3ccccc3)c(N3C[C@@H](C)CC3(C)C)n2)n1)C1C(C)(C)C1(C)C [Compound 36, N-(Benzenesulfonyl)-6-[3-[dideuterio-(2,2,3,3-tetramethylcyclopropyl)methoxy]pyrazol-1-yl]-2-[(4S)-2,2,4-trimethylpyrrolidin-1-yl]pyridine-3-carboxamide]",–,< 100 nM,–,–,–,–,–
"Cc1cc(C#N)ccc1S(=O)(=O)NC(=O)c1ccc(-n2ccc(OCC3(C(F)(F)F)CC3)n2)nc1N1C[C@@H](C)CC1(C)C [Compound 11, N-(4-Cyano-2-methyl-phenyl)sulfonyl-6-[3-[[1-(trifluoromethyl)cyclopropyl]methoxy]pyrazol-1-yl]-2-[(4S)-2,2,4-trimethylpyrrolidin-1-yl]pyridine-3-carboxamide]",–,100 to 1000 nM,–,–,–,–,–
"C[C@H]1CC(C)(C)N2c3nc(-n4ccc(OCCC5(C(F)(F)F)CC5)n4)ccc3C(=O)OC12 (stereo partly drawn) [Compound 62, (5S)-3,3,5-trimethyl-12-(3-(2-[1-(trifluoromethyl)cyclopropyl]ethoxy)-1H-pyrazol-1-yl)-7-oxa-2,13-diazatricyclo[7.4.0.02,6]trideca-1(13),9,11-trien-8-one]",–,> 1000 nM,> 30000 nM,–,–,–,–
"C[C@@H]1CN(c2nc(-n3ccc(OCC4(C(F)(F)F)CC4)n3)ccc2C(=O)NS(=O)(=O)c2ccccc2O)C(C)(C)C1 [Compound 20, N-(2-Hydroxyphenyl)sulfonyl-6-[3-[[1-(trifluoromethyl)cyclopropyl]methoxy]pyrazol-1-yl]-2-[(4S)-2,2,4-trimethylpyrrolidin-1-yl]pyridine-3-carboxamide]",–,100 to 1000 nM,–,–,–,–,–
